These results are taken from patent US11952328B2, “Selective ship inhibitors for treating disease” (THE RESEARCH FOUNDATION FOR THE STATE UNIVERSITY OF NEW YORK, priority 2018, dated 2024).

One test concerns RMA-Rael cells. The test can be described thus: Overall survival of RMA-Rael tumor challenged hosts (Kaplan-Meier). Type of test: in vivo, mice. How it is done: FIGS. 6A-6I show the survival of tumor bearing mice treated with a SHIP inhibitor. […] Hosts were treated on the day of tumor challenge and the following day as in FIG. 1. The 2-day treatment course was repeated each week for the duration of survival. […] Mice received either NK cell depleting, anti-NK1.1 antibody (PK136), or isotype control antibody prior to tumor challenge (5×10^5 RMA-Rael). The hosts received SHIP inhibitor two consecutive days each week until death. […] The hosts were treated on the day of tumor challenge and the following day as in FIG. 1. The 2-day treatment course was repeated each week for the duration of survival.
The most clinically relevant endpoint in any cancer therapy study is not a measured decrease in tumor burden, but instead, a significant increase in survival promoted by the treatment.
In order to further define 3AC′s capacity to control malignancy through immunomodulatory effects the capacity of 3AC to promote resistance of NSG, TcRa^−/− and NK cell depleted hosts to RMA-Rael tumor challenge was examined. As before, mice received treatment with 3AC or vehicle for two consecutive days each week followed by a five-day cessation of treatment to prevent disarming and/or exhaustion. This treatment strategy was continued indefinitely and survival was monitored (FIG. 6A). To confirm that, in addition to the chemotherapeutic effect documented in FIG. 5, 3AC-induced enhanced-NK and -T cell activity is important for the survival benefit following tumor challenge, NSG mice (mice deficient of all lymphocyte lineages) were challenged.
To determine if T cells are required for the 3AC-mediated survival benefit, the same expirement using TcRa^−/− hosts that lack a TcR-ab^+ T cell compartment was repeated. […] To directly test the requirement for an intact NK cell compartment for 3AC-mediated increased survival after tumor challenge, the experiment as described in FIG. 6A were repeated challenging C57BL/6 hosts that were first depleted of
NK cells. Here, prior to tumor challenge, hosts were injected with either NK cell depleting anti-NK1.1 antibody (C57BL/6-DNK) or with antibody isotype control (C57BL/6-iso) (FIG. 6B).
The SHIP1 inhibitor 3AC was then tested in a genetic model in which the molecular target, SHIP1, was absent in a key target population of T cells, which are required for protection in the RMA-Rael lymphoma challenge model. […] Thus, SHIP inhibitor protection after tumor challenge is lost when the T cell compartment lacks the molecular target (SHIP1) in T cells.
There are two paralogs of SHIP: SHIP1 which is expressed in a limited range of tissues including hematopoietic cells, and SHIP2 which is expressed by a wide array of cell types. To determine if SHIP2 may also play a role in host defense against malignancy as described above tumor bearing mice were treated with small-molecule inhibitors against SHIP2 as well. […] Stem Cells. (2015); 33: 848-858; Hoekstra, E. et al., Lipid phosphatase SHIP2 functions as oncogene in colorectal cancer by regulating PKB activation. Oncotarget. (2016) 7: 73525-73540). Like 3AC, pan-SHIP1/2 inhibitors such as K118 are also cytotoxic for RMA-Rael cells in vitro. The pan SHIP1/2 inhibitory compounds K118 and K149 were compared to the SHIP1 selective compound 3AC.
Simultaneous inhibition of both SHIP1and SHIP2 may be deleterious to the immune response promoted by 3AC. […] In the study, the SHIP1 selective inhibitor 3AC that provides for protection after RMA-Rael challenge was simulataneously co-administered.

In a further test the test system is CT26. Kind of test: CT26 viability following in vitro treatment. Type of test: cell-based, mice. To be noted: in vitro 24 h; only 20 μM vs 0 μM adjusted p=0.0463, other concentrations N.S. How it is done:
FIG. 7A and FIG. 7B show CT26 (FIG. 7A) and MC-38 (FIG. 7B) viability following in vitro treatment with 3AC for 24 h at indicated doses. Relative viability is expressed as frequency compared to solvent only treated cells. Kill curve summarizes pooled data from three independent experiments using six replicate wells/concentration with mean±SEM indicated. BALB/C mice were challenged with subcutaneous injection of CT26 colon carcinoma cells in the right flank. Mice were treated with either 2 consecutive days of 3AC or vehicle control each week as in FIG. 4A. Tumor size at […] 28 days (FIG. 7C), and tumor weight on day 28 determined after dissection of tumor (FIG. 7E). […] C57BL/6 mice were challenged with subcutaneous injection of MC-38 colon carcinoma cells in the right flank. Mice were treated with either 2 consecutive days of SHIP inhibitor or vehicle control each week as in FIG. 4A. Tumor size at 14, 21 and 25 days (FIG. 7D), and tumor weight (FIG. 7F) on day 25 were determined after dissection of tumor. […] FIG. 7A (n=18 per group. One-way ANOVA with Dunnett's multiple comparisons. 0 μM vs. 20 μM Adjusted p value=0.0463. All other concentrations of SHIP inhibitor compared with solvent only N.S.). FIG. 7B (n=18 per group. One-way ANOVA with Dunnett's multiple comparisons. All concentrations of SHIP inhibitor compared with solvent only N.S.). […]

Each structure is given as a SMILES string.

Turning to `CC(C)CCC[C@@H](C)[C@H]1CC[C@H]2[C@@H]3CCC4C[C@H](N)CC[C@]4(C)[C@H]3CC[C@]12C` (stereo partly drawn) [Compound 3AC, 3-α-aminocholestane], the overall survival entry in the test with RMA-Rael cells (3AC-treated NK cell depleted C57BL/6 (anti-NK1.1) vs 3AC-treated isotype control hosts) is recorded as “significantly compromised survival”; in the test on RMA-Rael cells (C57BL/6 hosts, 5×10^5 RMA-Rael, two consecutive days each week, five-day cessation, vs vehicle), “significantly increased survival”; with RMA-Rael cells (CD4CreSHIP flox/flox mice treated with 3AC vs vehicle-treated SHIP+/flox mice), “comparable survival”; with RMA-Rael cells (SHIP flox/flox mice treated with 3AC vs 3AC-treated CD4CreSHIP flox/flox and vehicle-treated SHIP+/flox), “enhanced survival”; in the test with RMA-Rael cells (TcRa−/− hosts, pulsatile dosing, compared to 3AC treatment of C57BL/6 hosts) it was “did not prolong survival”. Besides, the long-term survival entry in the test on RMA-Rael cells (C57BL/6 hosts, 1×10^5 RMA-Rael, FIG. 6H) is recorded as “long-term survival in a subset of hosts”. In addition, the “overall survival (protection)” value with RMA-Rael cells (C57BL/6 hosts, 1×10^5 RMA-Rael, FIG. 6H, vs vehicle) is “extended survival”. Moreover, in the test on RMA-Rael cells (NSG mice, pulsatile dosing, vs vehicle-treated NSG), the median survival entry is recorded as “very modest increase”. Also, the long term survival result in the test on RMA-Rael cells (subpopulation of 3AC treated C57BL/6 mice, pulsatile dosing, tumor uniformly lethal in vehicle mice) is given as “durable, long term survival without any evidence of tumor burden”. In the test on CT26, the “CT26 viability (direct killing)” value was “resistant to direct killing”.
